In BindingDB's records for doi:10.1016/j.bmc.2019.115091 (Kyowa Kirin, 2019):

Assay: Inhibition of chemR23 expressed in human CAL1 cells assessed as reduction in chemerin-induced chemotaxis incubated for 4 hrs by cell counting based CellTiter-Glo assay

CCCCN(c1nc2cc(C(=O)NC)ccc2o1)[C@H](C)c1ccc(-c2ccccc2-c2nnn[nH]2)cc1
IC50: 0.38 µM
